For experiment [1], the target named is T1, GmolPBP1 (Grapholita molesta, UniProt A0A2R4SBD6). The experiment is described as follows: 1-NPN fluorescence binding (titration, Scatchard plot). Particulars: 2 μM GmolPBP1 in 20 mM Tris-HCl pH 7.4, 1-NPN 2–16 μM; read-out: dissociation constant of the GmolPBP1/1-NPN complex. The protocol: (§1) To understand the binding properties of the GmolPBP1 with four sex pheromone components of G. molesta and the Codlemone of C. pomonella. We expressed and purified the protein (Figure S1). Then, a competitive binding assay was performed with 1-NPN as the fluorescence probe. The probe was excited at 337 nm and emission spectra were recorded between 370 and 500 nm. The fluorescent intensity of the 1-NPN alone was fairly low, then a strong blue shift, and peaked at about 410 nm with the presence of GmolPBP1. The intensity of this peak was used to determine the dissociation constant of the GmolPBP1/1-NPN complex.
T1 sequence (A0A2R4SBD6 entry or part of it): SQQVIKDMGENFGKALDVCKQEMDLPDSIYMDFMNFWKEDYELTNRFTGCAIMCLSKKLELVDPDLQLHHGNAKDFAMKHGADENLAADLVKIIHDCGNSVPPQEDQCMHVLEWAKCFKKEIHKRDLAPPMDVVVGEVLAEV
Emission fluorescence spectra were performed on an F-4600 fluorescence Spectrophotometer (Hitachi, Japan) in a 1 cm light path quartz cuvette with 10 nm slit width for both excitation and emission. The excitation wavelength was set at 337 nm and emission spectra were recorded between 370 and 500 nm. […] The fluorescence intensities at the maximum fluorescence emission between 370 and 500 nm were plotted against the concentrations of added 1-NPN. […] The concentrations of bound 1-NPN were evaluated from the values of fluorescence intensity assuming that the protein was 100% active with a stoichiometry of 1:1 (protein: ligand) at saturation. […]

In experiment [2] the target is T1, GmolPBP1. In words: Fluorescence competitive binding assay with 1-NPN as probe. Particulars: for IC50 / Ki: 1-NPN and GmolPBP1 both at 2 μM; for IC50 / binding affinity to GmolPBP1 (in words): ligands 1 to 10 μM; for IC50: read-out: IC50 (ligand concentration displacing half of the initial fluorescence intensity of the GmolPBP1/1-NPN complex); for Ki: calculated from the IC50 value, read-out: Ki (dissociation constant); for binding affinity to GmolPBP1 (in words): displacement of 1-NPN. The protocol: as §1
The displacement of 1-NPN by different sex pheromone components was measured for GmolPBP1 in the competitive binding assy. These ligands included the four sex pheromone components of G. molesta (Z)-8-dodecenyl acetate, (E)-8-dodecenyl acetate, (Z)-8-dodecenyl alcohol and 1-dodecanol as well as the C. pomonella Codlemone. […] The dissociation constants for these three compounds are 1.73 ± 0.31, 2.25 ± 0.63 and 1.88 ± 0.25 μM, respectively.
Emission fluorescence spectra were performed on an F-4600 fluorescence Spectrophotometer (Hitachi, Japan) in a 1 cm light path quartz cuvette with 10 nm slit width for both excitation and emission. The excitation wavelength was set at 337 nm and emission spectra were recorded between 370 and 500 nm. The fluorescent probe N-phenyl-1-naphthylamine (1-NPN) and the ligands used in the binding assay were dissolved in spectrophotometric-grade methanol to yield a 1-mM stock solution (for the sources of these chemicals, see Table S1). To determine the dissociation constant between 1-NPN and GmolPBP1, 2 μM GmolPBP1 dissolved in 20 mM Tris-HCl pH 7.4 was titrated with 1 mM 1-NPN to final concentrations of 2–16 μM. The fluorescence intensities at the maximum fluorescence emission between 370 and 500 nm were plotted against the concentrations of added 1-NPN. The curve was linearized using Scatchard plots. The concentrations of bound 1-NPN were evaluated from the values of fluorescence intensity assuming that the protein was 100% active with a stoichiometry of 1:1 (protein: ligand) at saturation. The affinities of the selected ligands were measured by competitive binding assays by adding the ligands from 1 to 10 μM into the 1-NPN/GmolPBP1 solution (both at 2 μM). The emission spectra were recorded between 370 and 500 nm and the maximum fluorescence intensities were plotted against the ligand concentrations after normalization relative to the intensity at zero ligand. For these competitor ligands, the dissociation constants were computed from the corresponding IC50 values using the quation: Ki = [IC50]/(1 + [1-NPN]/K1-NPN), where [1-NPN] is the free concentration of 1-NPN and K1-NPN is the dissociation constant of the protein complex/1-NPN. All values reported were collected in three independent measurements.

The target in experiment [3] is GmolPBP2. Details: method as in doi:10.1016/S2095-3119(13)60686-3. Conditions: cited from earlier work.
In experiment [4] the test system is CpomPBP2. Also on record: method as in PMID 27491022, PMID 27709920. Conditions: cited from earlier work.
For experiment [5], the system named is CpomPBP1. Also on record: method as in PMID 27491022, PMID 27709920. Conditions: cited from earlier work.
For experiment [6], the system named is male G. molesta. Also on record: method as in earlier work. Conditions: added to blend of (Z)-8-dodecenyl acetate (85.5%), (E)-8-dodecenyl acetate (5.5%) and (Z)-8-dodecenyl alcohol (9%); cited from earlier work.

These results are taken from publication PMC5797111, “Molecular and Functional Characterization of pheromone binding protein 1 from the Oriental Fruit Moth, Grapholita molesta (Busck)” (Scientific Reports, 2018).

Structures are written as SMILES.

Take `c1ccc(Nc2cccc3ccccc23)cc1` [1-NPN, N-phenyl-1-naphthylamine]: in experiment [1], the Kd was found to be 2410 ± 250 nM.

A word on the Ki: it is the equilibrium dissociation constant of an inhibitor or competing ligand from its target. As for `CCCCCCCCCCCCO` [1-dodecanol], in experiment [2], the IC50 was found to be 3200 ± 890 nM, the Ki was 2250 ± 630 nM and the “binding affinity to GmolPBP1 (in words)” value is “strong affinity”.

As for `CCC/C=C/CCCCCCCOC(C)=O` [(E)-8-dodecenyl acetate], the Ki in experiment [3] is 1100 ± 50 nM. Further, the “binding affinity to GmolPBP1 (in words)” value in experiment [2] was “could not displace half of the total 1-NPN”.

In the case of `CCC/C=C\CCCCCCCOC(C)=O` [(Z)-8-dodecenyl acetate], the Ki in experiment [3] is 1090 ± 40 nM. In addition, in experiment [2], the “binding affinity to GmolPBP1 (in words)” value was “could not displace half of the total 1-NPN”.

Turning to `CCC/C=C\CCCCCCCO` [(Z)-8-dodecenyl alcohol], in experiment [2], the IC50 amounted to 2460 ± 430 nM, the Ki is 1730 ± 310 nM and the “binding affinity to GmolPBP1 (in words)” value is recorded as “strong affinity”.

As to `C/C=C/C=C/CCCCCCCO` [Codlemone, E, E-8, 10-Dodecadienol], the “affinity to CpomPBP2 (in words)” value in experiment [4] was “poor affinity”. Further, the “affinity to CpomPBP1 (in words)” value in experiment [5] is reported as “strong affinity”. Besides, the “increase of trap catches of male G. molesta over the G. molesta blend alone” value in experiment [6] is reported as “two- to three-fold”. Besides, in experiment [2], the IC50 turned out to be 2660 ± 350 nM, the Ki was 1880 ± 250 nM and the “binding affinity to GmolPBP1 (in words)” value is “strong affinity”.
